Measurements published in article PMC7283364 (ACS infectious diseases, 2019).
pEC50, pIC50: −log10 of the molar value. “And” between values parts separate entries of the source, which are not always exact repeats. Equal entries are not always repeated. Where two headings read alike, the source gives them in different places. Where a SMILES comes first, the peptide text is derived from it. The star is where a group is joined. Cbz = O=C(OCc1ccccc1)*

Columns and labels:
[1] = tested on: S. mansoni proteasome β5 subunit; test: Proteasome inhibition in living worms exposed to inhibitors; format: cell-based, Schistosoma mansoni; settings: worms exposed to 1 μM for 24 h, washed, extracts assayed with Suc-LLVY-AMC
Sm20S β5 subunit = Sm20S β5 subunit (Schistosoma mansoni, UniProt A0A5K4F079); test: Sm20S β5 inhibition assay; format: biochemical
Sm20S β2 subunit [2] = target: Sm20S β2 subunit (Schistosoma mansoni, UniProt G4VSW3); test: Sm20S β2 inhibition assay; format: biochemical; settings: for pIC50: read-out: IC50 Sm20S β2, z-LRR-AMC
[3] = target: human immunoproteasome (i20S) β2 subunit (Homo sapiens, UniProt P40306); test: i20S β2 inhibition assay; format: biochemical
adult S. mansoni [4] = test: Microscopic observation of phenotypic changes of adult worms in culture; format: cell-based, Schistosoma mansoni; settings: 1 μM; for phenotypic changes: 24 h; for phenotype viewed under the microscope: 72 h
[5] = target: human immunoproteasome (i20S) β5 subunit (Homo sapiens, UniProt P28062); test: i20S β5 inhibition assay; format: biochemical; settings: for fold less potent towards i20S β5: compared with c20S and Sm20S β5
adult S. mansoni [6] = test: WormAssay quantitative motility assay of adult worms in culture; format: cell-based, Schistosoma mansoni; settings: 1 μM, mixed-sex adults
Sm20S β1 subunit = Sm20S β1 subunit (Schistosoma mansoni, UniProt G4V926); test: Sm20S β1 inhibition assay; format: biochemical; settings: for pIC50: read-out: IC50 Sm20S β1, z-LLE-AMC
[7] = target: human immunoproteasome (i20S) β1 subunit (Homo sapiens, UniProt P28065); test: i20S β1 inhibition assay; format: biochemical; settings: read-out: IC50 i20S β1
[8] = tested on: caspase activity in adult S. mansoni; test: Caspase activity; format: cell-based, Schistosoma mansoni; settings: 1 μM, 24 h, Ac-DEVD-AFC
[9] = tested on: Schistosoma mansoni infectious larvae (cercariae); settings: cercariae pre-treated with 50 μM; cited from earlier work
[10] = tested on: S. mansoni proteasome β5 subunit; test: Inhibition of proteasome activity; format: biochemical, Schistosoma mansoni; settings: 1 μM inhibitor added to lysate, Suc-LLVY-AMC, E-64 present
Sm20S β2 subunit [11] = test: Sm20S β2 inhibition assay; format: biochemical
HepG2 cells [12] = settings: cited from earlier work
HepG2 cells [13] = tested on: HepG2 cells

Structure (SMILES)	decrease in endogenous proteasome (β5) activity in living worms [1]	pIC50 (Sm20S β2 subunit [2])	phenotypic changes (adult S. mansoni [4])	decrease in worm motility (adult S. mansoni [6]; 24 h)	pIC50 (Sm20S β1 subunit)	increase in caspase activity compared to the DMSO control [8]	phenotype viewed under the microscope (adult S. mansoni [4])	reduction of proteolytic activity in worm lysate [10]	decrease in worm motility (adult S. mansoni [6]; 6 h)	fold less potent towards i20S β5 [5]	further results
CCCCCC(=O)N[C@H](C(=O)N[C@@H](CCS(C)(=O)=O)C(=O)N[C@@H](CC(C)C)C(=O)[C@@]1(C)CO1)C(C)C [carmaphycin B]	at least 80%	9.22	same deleterious phenotypic changes previously noted for bortezomib	at least 80%	< 6.30	–	–	–	–	–	pIC50 (Sm20S β5 subunit; read-out: IC50 Sm20S β5, Suc-LLVY-AMC): 8.01; pIC50 ([3]; read-out: IC50 i20S β2): 7.21; pIC50 ([5]; read-out: IC50 i20S β5): > 8.30; pIC50 [7]: < 6.30
CC(C)C[C@@H](C=O)NC(=O)[C@H](CC(C)C)NC(=O)[C@H](CC(C)C)NC(=O)OCc1ccccc1 [MG132] (Cbz-Leu-Leu-Leu-aldehyde)	no effect on proteasome activity	–	–	did not alter motility	–	not significantly different from the DMSO control	appeared normal in shape, movement and color	92%	–	–	reduction in parasite establishment compared to control-treated mice [9]: 96%
CC(C)C[C@H](NC(=O)[C@H](Cc1ccccc1)NC(=O)c1cnccn1)B(O)O [bortezomib]	–	6.57	same deleterious phenotypic changes previously noted for bortezomib	–	7.82	7 fold	relatively motionless, unable to extend or flex their bodies and darkened, and had detached from the surface of the well	99%	45%	–	pIC50 (Sm20S β5 subunit): 8.05; potency for Sm20S β1 compared with β5 (Sm20S β5 subunit): equal potency
CCCCCC(=O)N[C@@H](Cc1ccccc1)C(=O)N[C@@H](CCCC)C(=O)N[C@@H](Cc1ccccc1)C(=O)[C@@]1(C)CO1 [analog 7]	–	–	–	–	–	–	–	–	–	at least 5 fold	fold more potent for Sm20S β2 relative to c20S (Sm20S β2 subunit [11]): 3.3 fold
CCCCCC(=O)N[C@H](C(=O)N[C@@H](CCCC)C(=O)N[C@@H](CC(C)C)C(=O)[C@@]1(C)CO1)C(C)C [analog 1]	–	–	–	–	–	–	–	–	–	at least 5 fold	difference in potency between c20S and Sm20S (Sm20S β5 subunit; all subunits): no difference in potency; fold less potent towards i20S β2 ([3]; compared with c20S and Sm20S β2): at least 5 fold; pEC50 (HepG2 cells [12]): 6.87; fold less cytotoxic to HepG2 cells than carmaphycin B (HepG2 cells [13]): 11 fold
CC(C)C[C@H](NC(=O)[C@H](CCc1ccccc1)NC(=O)CN1CCOCC1)C(=O)N[C@@H](Cc1ccccc1)C(=O)N[C@@H](CC(C)C)C(=O)[C@@]1(C)CO1 [carfilzomib]	84% and > 75%	7.32	–	–	< 6.30	4.5 fold	phenotypic changes were similar to those observed for bortezomib	100%	47%	–	fold more potent against Sm20S β5 compared to bortezomib (Sm20S β5 subunit): 18 fold; selectivity for Sm20S β5 subunit over β1 (Sm20S β5 subunit): ~1000 fold; selectivity for Sm20S β5 subunit over β2 (Sm20S β5 subunit): approximately 100 fold; fold more potent against Sm20S β2 compared to bortezomib (Sm20S β2 subunit [2]): 5.6 fold; fold less potent against Sm20S β1 compared to bortezomib (Sm20S β1 subunit): more than 33 fold
